The results in this text go back to US10227323B2, “Glucosylceramide synthase inhibitors for the treatment of diseases” (BIOMARIN PHARMACEUTICAL INC., priority 2013, dated 2019).

In the first experiment the target is T1, GCS (Canis lupus familiaris, UniProt A0A8I3MXG6).
T1 sequence (A0A8I3MXG6 1-394): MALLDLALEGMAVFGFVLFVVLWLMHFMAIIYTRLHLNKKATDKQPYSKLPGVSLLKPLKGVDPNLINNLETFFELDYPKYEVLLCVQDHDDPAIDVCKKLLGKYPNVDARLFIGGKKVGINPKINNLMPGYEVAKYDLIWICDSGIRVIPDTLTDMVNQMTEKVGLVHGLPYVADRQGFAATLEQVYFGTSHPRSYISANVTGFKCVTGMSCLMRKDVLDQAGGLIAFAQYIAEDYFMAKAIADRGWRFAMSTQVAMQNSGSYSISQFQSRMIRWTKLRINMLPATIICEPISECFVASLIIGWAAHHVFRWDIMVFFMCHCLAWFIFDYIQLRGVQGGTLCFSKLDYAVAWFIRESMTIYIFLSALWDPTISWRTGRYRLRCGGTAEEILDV
The experiment is described as follows: Assay 1: GCS Enzymatic Assay (MDCK cell lysate, C6-NBD-Ceramide, LC/MS). It is filed as biochemical, canine. Conditions: Table 1; MDCK cell lysate; read-out: IC50 (nM) generated from Assay 1. Here is the method: This assay was modified based on the study by Larsen et al. (J. Lipid Res. 2011, 53, 282). Madin-Darby canine kidney (MDCK) cell lysate was prepared using M-PER Mammalian Protein Extraction Reagent (Thermal Scientific) in the presence of a protease inhibitor cocktail (Roche). Protein concentration was determined using BCA assay kit (Pierce). Sixty micrograms of MDCK cell lysate was incubated with various concentrations of a compound described herein from 0.001 μM-10 μM, respectively, in 100 mM Tris buffer (pH 7.5) containing 10 mM MgCl2, 1 mM dithiothreitol, 1 mM EGTA, 2 mM NAD, 100 μM UDP-glucose, 10 μM C6-NBD-Ceramide (Matreya LLC, Pleasant Gap, Pa.), 35 μM dioleoylphosphatidylcholine and 5 μM sulfatide (Sigma) in a final reaction volume of 100 μL at 37° C. for 1 hour. 0.1% DMSO was used as mock treatment or control. The reaction was terminated by adding 100 μL acetonitrile solution and subjected to LC/MS analysis.
The quantitative analysis of NBD-Ceramide and glucosylceramide was performed on a Shimadzu ultra-fast liquid chromatography (Shimadzu, Japan) coupled with API 4000 triple quadrupole mass spectrometer (Applied Biosystems, Concord, Ontario, Canada). Sample separation was conducted on a Waters Xbridge™ BEH130 C18, 100 mm×4.6 mm i.d, 3.5 μm (Milford, Mass., USA). The mobile phase consisted of water and acetonitrile supplemented with 0.1% formic acid (v/v). The flow rate was 1.0 mL/min. The initial mobile phase was 20% acetonitrile and was ramped in a linear fashion to 50% acetonitrile in 0.4 min. From 0.4 to 1.5 min, the gradient was ramped to 98% acetonitrile, and then was held at […] until 8.0 min. Acetonitrile was reset to 20% in 1.5 min, and maintained until 10.0 min. The total run time was 10.0 min. The MS/MS detection was performed in ESI positive mode. The mass transition of NBD-Ceramide was m/z 576.36→558.40 under the collision energy of 15 V, and the mass transition of glucosylceramide was m/z 738.35→558.40 under 21V collision energy. The cell lysate was diluted with equal volume of acetonitrile. Aliquots of 50 μL diluted samples were added to 1.5 mL tubes, and 100 μL of acetonitrile containing internal standard (100 ng/mL tolbutamide) were added for protein precipitation. The mixture were vortexed and then centrifuged at 13000 rpm for 10 min. 70 μL of supernatant were mixed with 140 μL of H2O and the final solution were injected for LC/MS/MS analysis and IC50's and/or percent inhibitions calculated.
For the compound `O=C(N[C@H](CN1CCCC1)[C@H](O)c1ccc(OC2CCOC2)c(Cl)c1)C(F)(F)c1cc2cc(Cl)ccc2o1` (single isomer, unassigned) [Compound 47], the 50% inhibitory concentration (IC50) is < 50 nM. On the same count and under the same terms, in the case of `O=C(N[C@H](CN1CCCC1)[C@H](O)c1ccc2c(c1)OCCO2)C(F)(F)C1Cc2ccccc2C1` [Compound 1, 2-(2,3-dihydro-1H-inden-2-yl)-N-((1R,2R)-1-(2,3-dihydrobenzo[b][1,4]dioxin-6-yl)-1-hydroxy-3-(pyrrolidin-1-yl)propan-2-yl)-2,2-difluoroacetamide] it was < 50 nM; in that of `O=C(N[C@H](CN1CCCC1)[C@H](O)c1ccc2c(c1)OCCO2)C(F)(F)c1ccc2c(c1)OCCO2` [Compound 2, 2-(2,3-dihydrobenzo[b][1,4]dioxin-6-yl)-N-((1R,2R)-1-(2,3-dihydrobenzo[b][1,4]dioxin-6-yl)-1-hydroxy-3-(pyrrolidin-1-yl)propan-2-yl)-2,2-difluoroacetamide], 50 to 5000 nM. The same measure, in the same setting: next, `O=C(N[C@H](CN1CCCC1)[C@H](O)c1ccc2c(c1)OCCO2)C(F)(F)c1cc2cc(Cl)ccc2s1` [Compound 3, 2-(5-chlorobenzo[b]thiophen-2-yl)-N-((1R,2R)-1-(2,3-dihydrobenzo[b][1,4]dioxin-6-yl)-1-hydroxy-3-(pyrrolidin-1-yl)propan-2-yl)-2,2-difluoroacetamide]: < 50 nM. On the same count and under the same terms, in the case of `COc1ccc([C@H](O)[C@@H](CN2CCCC2)NC(=O)C(F)(F)C2Cc3ccccc3C2)cc1F` [Compound 5, 2-(2,3-dihydro-1H-inden-2-yl)-2,2-difluoro-N-((1S,2R)-1-(3-fluoro-4-methoxyphenyl)-1-hydroxy-3-(pyrrolidin-1-yl)propan-2-yl)acetamide] it was < 50 nM. `COc1ccc(C(O)[C@@H](CN2CCCC2)NC(=O)C(F)(F)C2Cc3ccccc3C2)cc1F` (stereo partly drawn) [Compound 5A, 2-(2,3-dihydro-1H-inden-2-yl)-2,2-difluoro-N-((2R)-1-(3-fluoro-4-methoxyphenyl)-1-hydroxy-3-(pyrrolidin-1-yl)propan-2-yl)acetamide]: the IC50 was in the range of 50 to 5000 nM. Still for that read-out and setting: next, `O=C(N[C@H](CN1CCCC1)[C@H](O)c1ccc2c(c1)OCCO2)C(F)(F)C1Cc2cc(Cl)c(Cl)cc2C1` [Compound 7, 2-(5,6-dichloro-2,3-dihydro-1H-inden-2-yl)-N-((1R,2R)-1-(2,3-dihydrobenzo[b][1,4]dioxin-6-yl)-1-hydroxy-3-(pyrrolidin-1-yl)propan-2-yl)-2,2-difluoroacetamide]: < 50 nM.

The same experiment, now with this note: Table 1; values marked *; MDCK cell lysate.
Take `COc1ccc(C(O)[C@@H](CN2CCCC2)NC(=O)C(F)(F)c2cc3cc(Cl)ccc3s2)cc1F` (stereo partly drawn) [Compound 4, 2-(5-chlorobenzo[b]thiophen-2-yl)-2,2-difluoro-N-((2R)-1-(3-fluoro-4-methoxyphenyl)-1-hydroxy-3-(pyrrolidin-1-yl)propan-2-yl)acetamide]: the “% inhibition generated from Assay 1” value is recorded as “B* (the compound had a % inhibition of greater than or equal to about 3% but less than about 50%)”. On the same count and under the same terms, next, `COc1ccc([C@@H](O)[C@@H](CN2CCCC2)NC(=O)C(F)(F)C2Cc3ccccc3C2)cc1F` [Compound 5B, 2-(2,3-dihydro-1H-inden-2-yl)-2,2-difluoro-N-((1R,2R)-1-(3-fluoro-4-methoxyphenyl)-1-hydroxy-3-(pyrrolidin-1-yl)propan-2-yl)acetamide]: “B* (the compound had a % inhibition of greater than or equal to about 3% but less than about 50%)”. For the compound `O=C(N[C@H](CN1CCCC1)[C@H](O)c1ccc2c(c1)OCCO2)C(F)(F)c1nc2cc(Cl)ccc2s1` [Compound 6, 2-(5-chlorobenzo[d]thiazol-2-yl)-N-((1R,2R)-1-(2,3-dihydrobenzo[b][1,4]dioxin-6-yl)-1-hydroxy-3-(pyrrolidin-1-yl)propan-2-yl)-2,2-difluoroacetamide], the “% inhibition generated from Assay 1” value is on record as “B* (the compound had a % inhibition of greater than or equal to about 3% but less than about 50%)”. The same measure, in the same setting: next, `COc1ccc(F)c([C@@H](O)[C@@H](CN2CCCC2)NC(=O)C(F)(F)C2Cc3ccccc3C2)c1` [Compound 8, 2-(2,3-dihydro-1H-inden-2-yl)-2,2-difluoro-N-((1R,2R)-1-(2-fluoro-5-methoxyphenyl)-1-hydroxy-3-(pyrrolidin-1-yl)propan-2-yl)acetamide]: “B* (the compound had a % inhibition of greater than or equal to about 3% but less than about 50%)”. Same read-out and setting: next, `COc1ccc(F)c([C@H](O)[C@@H](CN2CCCC2)NC(=O)C(F)(F)C2Cc3ccccc3C2)c1` [Compound 8J, 2-(2,3-dihydro-1H-inden-2-yl)-2,2-difluoro-N-((1S,2R)-1-(2-fluoro-5-methoxyphenyl)-1-hydroxy-3-(pyrrolidin-1-yl)propan-2-yl)acetamide]: “B* (the compound had a % inhibition of greater than or equal to about 3% but less than about 50%)”.

For the compound `Cn1c(C(F)(F)C(=O)N[C@H](CN2CCCC2)[C@H](O)c2ccc3c(c2)OCCO3)nc2cc(Cl)ccc21` [Compound 10, 2-(5-chloro-1-methyl-1H-benzo[d]imidazol-2-yl)-N-((1R,2R)-1-(2,3-dihydrobenzo[b][1,4]dioxin-6-yl)-1-hydroxy-3-(pyrrolidin-1-yl)propan-2-yl)-2,2-difluoroacetamide], the “% inhibition generated from Assay 1” value is listed as “B* (the compound had a % inhibition of greater than or equal to about 3% but less than about 50%)”.

Staying with this experiment, now noted: Table 2; data marked by *.
Turning to `CC(C)Oc1cc(C(O)[C@@H](CN2CCCC2)NC(=O)C(F)(F)c2cc3cc(Cl)ccc3o2)ccn1` (stereo in doubt) [Compound 103, 2-(5-chlorobenzofuran-2-yl)-2,2-difluoro-N-((1S,2R)-1-hydroxy-1-(2-isopropoxypyridin-4-yl)-3-(pyrrolidin-1-yl)propan-2-yl)acetamide], the “% inhibition generated from Assay 1” value is given as “B* (the compound had a % inhibition of greater than or equal to about 3% but less than about 50%)”. On the same count and under the same terms, in the case of `O=C(N[C@H](CN1CCC1)C(O)c1cc(F)c2c(c1)OCCO2)C(F)(F)CCc1ccc2ccccc2c1` (stereo in doubt) [Compound 113, N-((1S,2R)-3-(azetidin-1-yl)-1-(8-fluoro-2,3-dihydrobenzo[b][1,4]dioxin-6-yl)-1-hydroxypropan-2-yl)-2,2-difluoro-4-(naphthalen-2-yl)butanamide] it was “B* (the compound had a % inhibition of greater than or equal to about 3% but less than about 50%)”; in that of `CC1(C)CCc2cc(C(O)[C@@H](CN3CCCC3)NC(=O)C(F)(F)CCc3ccc4ccccc4c3)ccc2O1` (stereo in doubt) [Compound 117, N-((1S,2R)-1-(2,2-dimethylchroman-6-yl)-1-hydroxy-3-(pyrrolidin-1-yl)propan-2-yl)-2,2-difluoro-4-(naphthalen-2-yl)butanamide], “B* (the compound had a % inhibition of greater than or equal to about 3% but less than about 50%)”; in that of `O=C(N[C@H](CN1CCCC1)C(O)c1ccc(N2CCOCC2)c(Cl)c1)C(F)(F)CCc1ccc2ccccc2c1` (stereo in doubt) [Compound 124, N-((1S,2R)-1-(3-chloro-4-morpholinophenyl)-1-hydroxy-3-(pyrrolidin-1-yl)propan-2-yl)-2,2-difluoro-4-(naphthalen-2-yl)butanamide], “B* (the compound had a % inhibition of greater than or equal to about 3% but less than about 50%)”.

Staying with this experiment, now noted: Table 2; data without asterisk; read-out: IC50 (nM) generated from Assay 1.
For `CC(C)Oc1ccc(C(O)[C@@H](CN2CCCC2)NC(=O)C(F)(F)c2cc3cc(Cl)ccc3o2)cn1` (stereo in doubt) [Compound 80, 2-(5-chlorobenzofuran-2-yl)-2,2-difluoro-N-((1S,2R)-1-hydroxy-1-(6-isopropoxypyridin-3-yl)-3-(pyrrolidin-1-yl)propan-2-yl)acetamide], the IC50 was 50 to 5000 nM.

The term IC50 denotes the concentration that inhibits the measured activity by half.
